The record followed here is ChEMBL document CHEMBL1201862, “PubChem BioAssay data set” (2004).

Test [1] concerns the target T1, Calpain-2 catalytic subunit (Sus scrofa, UniProt P43367).
T1 sequence (P43367 whole entry): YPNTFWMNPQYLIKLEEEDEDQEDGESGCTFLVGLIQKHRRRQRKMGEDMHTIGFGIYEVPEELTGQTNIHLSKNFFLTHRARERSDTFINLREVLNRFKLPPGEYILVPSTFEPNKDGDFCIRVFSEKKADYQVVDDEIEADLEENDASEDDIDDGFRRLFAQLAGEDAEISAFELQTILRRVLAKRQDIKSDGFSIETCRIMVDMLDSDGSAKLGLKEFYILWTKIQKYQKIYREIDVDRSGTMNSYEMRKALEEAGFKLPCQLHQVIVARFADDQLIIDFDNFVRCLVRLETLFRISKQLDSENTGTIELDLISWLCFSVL
Description: m-calpain protease blockers, concentration series – biochemical, fluorogenic peptide substrate, dose response (AID 1420). The format is functional.

The target in another test is X-box-binding protein 1 (Homo sapiens, UniProt P17861). The format is functional, Cricetulus griseus.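 Note: confirmatory dose-response counter-screen serving a CHOP assay.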
Sequence of X-box-binding protein 1 (P17861 whole entry): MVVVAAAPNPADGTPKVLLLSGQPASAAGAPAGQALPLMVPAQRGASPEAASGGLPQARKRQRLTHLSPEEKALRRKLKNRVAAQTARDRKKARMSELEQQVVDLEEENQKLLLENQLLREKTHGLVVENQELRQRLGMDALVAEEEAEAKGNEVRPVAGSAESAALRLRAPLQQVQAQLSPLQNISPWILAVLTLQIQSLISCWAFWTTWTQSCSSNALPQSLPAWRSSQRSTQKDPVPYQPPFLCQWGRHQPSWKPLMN
The next test addresses T2, Protein RecA (Mycobacterium tuberculosis, UniProt P9WHJ3).
T2 sequence (P9WHJ3 whole entry): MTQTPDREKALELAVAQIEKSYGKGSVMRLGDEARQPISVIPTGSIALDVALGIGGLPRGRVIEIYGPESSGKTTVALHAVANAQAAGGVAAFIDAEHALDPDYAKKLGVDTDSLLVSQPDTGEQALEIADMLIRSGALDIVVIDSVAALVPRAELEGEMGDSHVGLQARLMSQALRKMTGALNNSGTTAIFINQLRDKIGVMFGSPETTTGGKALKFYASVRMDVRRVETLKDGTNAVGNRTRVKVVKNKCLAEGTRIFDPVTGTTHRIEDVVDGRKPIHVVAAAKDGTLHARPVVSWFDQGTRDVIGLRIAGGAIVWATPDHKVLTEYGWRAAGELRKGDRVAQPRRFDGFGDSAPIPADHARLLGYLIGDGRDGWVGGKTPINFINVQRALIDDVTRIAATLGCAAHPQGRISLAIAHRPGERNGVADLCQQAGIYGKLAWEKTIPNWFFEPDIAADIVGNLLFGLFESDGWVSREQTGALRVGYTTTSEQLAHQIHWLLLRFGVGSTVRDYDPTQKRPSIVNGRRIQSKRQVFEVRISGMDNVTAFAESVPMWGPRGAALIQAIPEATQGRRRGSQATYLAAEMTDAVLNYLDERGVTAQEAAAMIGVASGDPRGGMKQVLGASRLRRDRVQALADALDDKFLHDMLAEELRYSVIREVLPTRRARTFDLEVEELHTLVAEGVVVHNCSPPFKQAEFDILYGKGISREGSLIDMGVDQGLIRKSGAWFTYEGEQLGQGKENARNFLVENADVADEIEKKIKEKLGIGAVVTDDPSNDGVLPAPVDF
Description: Fluorescence Cell-Free Homogeneous Dose Retest to Identify Inhibitors of RecA-Intein Splicing Activity. [Related pubchem assays (depositor defined):AID2097, AID2223, AID489010, AID492950]. The format is functional.

In a further test the test system is HEK293. As to the kind of experiment: membrane integrity loss in HEK cells – cell-based, fluorescence, cytotoxicity control for IDE activator project, dose response (AID 588440).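 Note: cytotoxicity by LDH release measuring loss of membrane integrity.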 The format is functional. As to conditions: Homo sapiens.
Test [2] in a line: loss of viability in HepG2 cells – cell-based, CellTiter-Glo, cherry-picked, cytotoxicity control for Shn3 inhibitor project, dose response (AID 624134). The format is functional. (ATP-based viability assays read luminescence as a measure of living cells.)
The nature of test [3]: non-specific 3'UTR reporter inhibition in Clone20-Shn3RL – cell-based, Renilla luciferase, cherry-picked, counter-screen for Shn3 inhibitor project, dose response (AID 624133). The format is functional.
A short description of test [4]: blockers of bursicon-stimulated LGR2 cAMP reporter – cell-based, HEK293, CRE-luciferase reporter, cherry pick, set 2, dose response (AID 743343).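 Note: transfected cells were stimulated with diluted bursicon conditioned medium after compound addition.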 The format is functional. On the technique in general: Reporter assays use an easily measured gene product as a stand-in for the process of interest.
The nature of test [5]: viability loss in HEK293 cells – cell-based, plate reader, cherry-picked samples, cytotoxicity control, dose response (AID 743446). The format is functional.

The source made the active and inactive calls.

For `Cl.N=c1n(Cc2ccccc2)c2ccccc2n1CC(O)COc1ccc(Cl)cc1Cl` (stereo not drawn), the IC50 (as a rule, the concentration needed to halve the response being measured) in test [1] is 33.4 µM (not active); with HEK293, 8.27 µM (active). In addition, the “Absolute IC50 (XBP1)” value at X-box-binding protein 1 was determined as 10 µM. Further, the EC50 (as a rule, the concentration giving half of the maximal effect) on Protein RecA is > 380 µM (inconclusive). The AC50 (as a rule, the concentration at which the activity in the assay is half-maximal) in test [2] was 14.3 µM (active); in test [3] it was 5.16 µM (active); in test [4], 23.1 µM (active); in test [5], 12.7 µM (active).
